Assay results published in ChEMBL document CHEMBL5537169, “Structure-Activity Relationships and Discovery of (S)-6-Isopropyl-2-methoxy-3-(3-methoxypropoxy)-10-oxo-5,10-dihydro-6H-pyrido[1,2-h][1,7]naphthyridine-9-carboxylic Acid (AB-452), a Novel Orally Available HBV RNA Destabilizer” (J Med Chem, 2024).
In brackets after ≈: the same amount, converted by molar mass.

How the values were obtained:
[1] = Protein binding in mouse plasma assessed as fraction unbound at 2 uM incubated for 6 hrs by equilibrium dialysis based LC-MS/MS analysis; type: ADME, cell-free
[2] = target: Cytochrome P450 3A4 (Homo sapiens, UniProt P08684); assay: Reversible inhibition of CYP3A4 in human liver microsomes using midazolam as substrate pre-incubated for 30 mins followed by NADPH addition and measured after 10 mins by LC-MS/MS analysis; type: ADME, Microsome
[3] = Apparent volume of distribution at steady state in Beagle dog at 2 mg/kg,iv measured at 0.083 to 24 hrs post administration by LC-MS/MS analysis; type: ADME, organism-based, Canis lupus familiaris; conditions: in vivo, time 0.083-24 hrs; for Vd: Beagle, read-out: Vdss(app)
[4] = Tmax in Sprague-Dawley rat at 10 mg/kg,po measured at 0.083 to 24 hrs post administration by LC-MS/MS analysis; type: ADME, organism-based; conditions: Sprague-Dawley, in vivo, time 0.083-24 hrs, read-out: Tmax
[5] = Kinetic solubility of compound in PBS at pH 7.4 incubated for 24 hrs by UPLC-UV analysis; type: physicochemical; conditions: read-out: Kinetic_solubility
[6] = Drug accumulation in CD-1 mouse liver at 10 mg/kg,po measured at 0.083 to 24 hrs post administration by LC-MS/MS analysis; type: ADME, organism-based; conditions: in vivo, time 0.083-24 hrs
[7] = Drug accumulation in Sprague-Dawley rat liver at 10 mg/kg,po measured at 0.083 to 24 hrs post administration by LC-MS/MS analysis; type: ADME, organism-based; conditions: in vivo, time 0.083-24 hrs
[8] = Clearance in Beagle dog at 2 mg/kg,iv measured at 0.083 to 24 hrs post administration by LC-MS/MS analysis; type: ADME, organism-based, Canis lupus familiaris; conditions: in vivo, time 0.083-24 hrs
[9] = Efflux ratio of apparent permeability from […] in human Caco-2 cells incubated for 120 mins by LC-MS/MS analysis; type: ADME, cell-based; conditions: caco-2, 2 h
[10] = system: HepG2 2.2.15; assay: Cytotoxicity against human HepG2.2.15 cells by Cell-titer Glo luminescent assay; type: functional
[11] = Kinetic solubility of compound in PBS at pH 4 incubated for 24 hrs by UPLC-UV analysis; type: physicochemical; conditions: read-out: Kinetic_solubility
[12] = target: Cytochrome P450 2D6 (Homo sapiens, UniProt P10635); assay: Reversible inhibition of CYP2D6 in human liver microsomes using dextromethorphan as substrate pre-incubated for 30 mins followed by NADPH addition and measured after 10 mins by LC-MS/MS analysis; type: ADME, Microsome
[13] = Cardiotoxicity in Langendorff-perfused New Zealand White rabbit heart assessed as increase in PR interval incubated for 45 mins by ECG analysis; type: toxicity, tissue-based, Oryctolagus cuniculus; conditions: 0.75 h
[14] = Cardiotoxicity in Langendorff-perfused New Zealand White rabbit heart assessed as increase in QRS interval incubated for 45 mins by ECG analysis; type: toxicity, tissue-based, Oryctolagus cuniculus; conditions: 0.75 h
[15] = target: Cytochrome P450 2C9 (Homo sapiens, UniProt P11712); assay: Reversible inhibition of CYP2C9 in human liver microsomes using diclofenac as substrate pre-incubated for 30 mins followed by NADPH addition and measured after 10 mins by LC-MS/MS analysis; type: ADME, Microsome
[16] = Drug accumulation in CD-1 mouse plasma assessed as fold change in drug uptake at 10 mg/kg,po measured at 0.083 to 24 hrs post administration by LC-MS/MS analysis; type: ADME, organism-based; conditions: in vivo, time 0.083-24 hrs
[17] = Half life in CD-1 mouse at 2 mg/kg,iv measured at 0.083 to 24 hrs post administration by LC-MS/MS analysis; type: ADME, organism-based; conditions: in vivo, time 0.083-24 hrs
[18] = AUCinfinity in Sprague-Dawley rat at 2 mg/kg,iv measured at 0.083 to 24 hrs post administration by LC-MS/MS analysis; type: ADME, organism-based; conditions: Sprague-Dawley, in vivo, time 0.083-24 hrs
[19] = Cmax in Sprague-Dawley rat at 10 mg/kg,po measured at 0.083 to 24 hrs post administration by LC-MS/MS analysis; type: ADME, organism-based; conditions: Sprague-Dawley, in vivo, time 0.083-24 hrs, read-out: Cmax
[20] = Drug accumulation in CD-1 mouse liver assessed as fold change in drug uptake at 10 mg/kg,po measured at 0.083 to 24 hrs post administration by LC-MS/MS analysis; type: ADME, organism-based; conditions: in vivo, time 0.083-24 hrs
[21] = Apparent volume of distribution at steady state in Sprague-Dawley rat at 2 mg/kg,iv measured at 0.083 to 24 hrs post administration by LC-MS/MS analysis; type: ADME, organism-based; conditions: in vivo, time 0.083-24 hrs, read-out: Vdss(app)
[22] = Apparent volume of distribution at steady state in CD-1 mouse at 2 mg/kg,iv measured at 0.083 to 24 hrs post administration by LC-MS/MS analysis; type: ADME, organism-based; conditions: in vivo, time 0.083-24 hrs, read-out: Vdss(app)
[23] = Drug accumulation in Sprague-Dawley rat liver assessed as fold change in drug uptake at 10 mg/kg,po measured at 0.083 to 24 hrs post administration by LC-MS/MS analysis; type: ADME, organism-based; conditions: in vivo, time 0.083-24 hrs
[24] = Half life in Sprague-Dawley rat at 2 mg/kg,iv measured at 0.083 to 24 hrs post administration by LC-MS/MS analysis; type: ADME, organism-based; conditions: in vivo, time 0.083-24 hrs
[25] = AUCinfinity in CD-1 mouse at 2 mg/kg,iv measured at 0.083 to 24 hrs post administration by LC-MS/MS analysis; type: ADME, organism-based; conditions: in vivo, time 0.083-24 hrs
[26] = Clearance in Sprague-Dawley rat at 2 mg/kg,iv measured at 0.083 to 24 hrs post administration by LC-MS/MS analysis; type: ADME, organism-based; conditions: in vivo, time 0.083-24 hrs
[27] = Cmax in Sprague-Dawley rat at 2 mg/kg,iv measured at 0.083 to 24 hrs post administration by LC-MS/MS analysis; type: ADME, organism-based; conditions: in vivo, time 0.083-24 hrs
[28] = Cmax in CD-1 mouse at 2 mg/kg,iv measured at 0.083 to 24 hrs post administration by LC-MS/MS analysis; type: ADME, organism-based; conditions: in vivo, time 0.083-24 hrs
[29] = Drug accumulation in Sprague-Dawley rat plasma assessed as fold change in drug uptake at 10 mg/kg,po measured at 0.083 to 24 hrs post administration by LC-MS/MS analysis; type: ADME, organism-based; conditions: in vivo, time 0.083-24 hrs
[30] = Cardiotoxicity in Langendorff-perfused New Zealand White rabbit heart assessed as increase in QRS interval upto 10 uM incubated for 45 mins by ECG analysis; type: toxicity, tissue-based, Oryctolagus cuniculus; conditions: 0.75 h
[31] = Toxicity in rat assessed as NOAEL administrated for 28 days; conditions: in vivo, time 28 day
[32] = Cardiotoxicity in Langendorff-perfused New Zealand White rabbit heart assessed as increase in QT interval upto 10 uM incubated for 45 mins by ECG analysis; type: toxicity, tissue-based, Oryctolagus cuniculus; conditions: 0.75 h
[33] = system: Hepatitis B virus; assay: Antiviral activity against AAV-Hepatitis B virus infected in C57BL/6 mouse assessed as serum HBsAg level at 30 mg/kg,po administrated once daily for 7 days by enzyme-linked immunoassay; type: functional; conditions: time 7 day
[34] = system: Hepatitis B virus; assay: Antiviral activity against AAV-Hepatitis B virus infected in human Primary hepatocyte assessed as reduction in HBV DNA level measured after 16 days by ELISA; type: functional, organism-based; conditions: 384 h
[35] = system: Hepatitis B virus; assay: Antiviral activity against AAV-Hepatitis B virus infected in human Primary hepatocyte assessed as reduction in HBsAg level measured after 16 days by ELISA; type: functional, organism-based; conditions: 384 h
[36] = system: Hepatitis B virus; assay: Antiviral activity against AAV-Hepatitis B virus infected in C57BL/6 mouse assessed as serum HBsAg level at 10 mg/kg,po administrated once daily for 7 days by enzyme-linked immunoassay; type: functional; conditions: time 7 day

Cytochrome P450 2D6, sequence (P10635 whole entry, the tested form may be a part): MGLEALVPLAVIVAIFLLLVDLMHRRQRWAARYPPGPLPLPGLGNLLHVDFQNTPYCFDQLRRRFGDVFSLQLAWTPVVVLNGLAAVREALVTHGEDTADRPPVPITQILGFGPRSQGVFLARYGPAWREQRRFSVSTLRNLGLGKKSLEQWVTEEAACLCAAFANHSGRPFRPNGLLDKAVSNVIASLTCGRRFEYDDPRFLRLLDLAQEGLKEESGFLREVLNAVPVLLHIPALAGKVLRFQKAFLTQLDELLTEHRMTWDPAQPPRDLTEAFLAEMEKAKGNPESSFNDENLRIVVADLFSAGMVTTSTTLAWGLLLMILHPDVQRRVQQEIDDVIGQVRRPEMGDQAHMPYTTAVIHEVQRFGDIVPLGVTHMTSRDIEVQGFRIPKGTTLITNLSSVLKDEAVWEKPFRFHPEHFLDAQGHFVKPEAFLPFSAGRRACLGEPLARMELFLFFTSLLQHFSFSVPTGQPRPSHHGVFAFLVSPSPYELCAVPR
Cytochrome P450 2C9, sequence (P11712 whole entry): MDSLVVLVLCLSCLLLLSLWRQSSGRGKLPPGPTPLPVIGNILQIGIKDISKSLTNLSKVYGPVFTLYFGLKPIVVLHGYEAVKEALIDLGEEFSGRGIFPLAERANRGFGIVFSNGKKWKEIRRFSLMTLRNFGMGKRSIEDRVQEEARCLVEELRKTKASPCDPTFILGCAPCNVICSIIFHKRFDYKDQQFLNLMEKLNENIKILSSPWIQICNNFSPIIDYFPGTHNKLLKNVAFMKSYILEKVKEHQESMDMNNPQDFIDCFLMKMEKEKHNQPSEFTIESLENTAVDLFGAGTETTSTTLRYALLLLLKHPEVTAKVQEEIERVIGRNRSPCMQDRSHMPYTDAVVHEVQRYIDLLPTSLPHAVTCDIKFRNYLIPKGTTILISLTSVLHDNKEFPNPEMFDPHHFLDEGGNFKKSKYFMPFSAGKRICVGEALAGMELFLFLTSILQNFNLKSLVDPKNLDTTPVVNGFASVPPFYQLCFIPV
Cytochrome P450 3A4, sequence (P08684 whole entry): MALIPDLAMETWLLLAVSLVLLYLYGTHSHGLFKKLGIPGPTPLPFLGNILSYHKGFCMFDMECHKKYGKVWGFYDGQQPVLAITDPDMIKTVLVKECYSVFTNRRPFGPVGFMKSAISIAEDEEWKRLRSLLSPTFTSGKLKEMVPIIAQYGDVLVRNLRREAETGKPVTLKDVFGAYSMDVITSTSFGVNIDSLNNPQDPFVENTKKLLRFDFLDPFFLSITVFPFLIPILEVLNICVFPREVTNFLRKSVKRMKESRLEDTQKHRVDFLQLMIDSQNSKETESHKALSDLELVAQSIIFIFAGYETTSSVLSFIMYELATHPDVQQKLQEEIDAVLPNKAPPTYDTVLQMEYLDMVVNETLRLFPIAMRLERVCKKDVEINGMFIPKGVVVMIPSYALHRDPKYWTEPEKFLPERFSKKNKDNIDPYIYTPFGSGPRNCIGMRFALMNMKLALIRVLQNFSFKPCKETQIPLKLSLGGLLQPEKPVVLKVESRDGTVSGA

Row | SMILES | fraction unbound at 6 h, 2 µM [1] | IC50 [2] | Vd [3] | solubility kinetic at 24 h [5] | clearance [8] | Ratio [9] | CC50 [10] | solubility kinetic at 24 h [11] | IC50 [12] | Activity [13] | Activity [14] | IC50 [15] | fold change (FC) [16] | half-life [17] | AUC(0-inf) [18] | Cmax [19] | fold change (FC) [20] | Vd [21] | Vd [22] | fold change (FC) [23] | further results
1 | COCCCOc1cc2c(cc1Cl)-c1cc(=O)c(C(=O)O)cn1[C@H](C(C)C)CO2 | 0.2 | > 25 µM | 1 L/kg | > 200 µM | 10 mL/min/kg | 1.5 | 39 µM | 31 µM (≈ 13.1 µg/mL) | > 25 µM | Toxic | Toxic | > 25 µM | – | – | – | – | – | – | – | – | Tmax [4]: 2.1 h; Ct [6]: 425 ng/g; Ct [7]: 29 ng/g
2 | COCCCOc1cc2c(cc1OC)-c1cc(=O)c(C(=O)O)cn1[C@H](C(C)C)C2 | 0.5 | – | – | 190 µM (≈ 76.3 µg/mL) | – | – | – | – | – | Toxic | Toxic | – | < 1 | 1 h | 4760 ng·h/mL | 1190 ng/mL | < 1 | 0.7 L/kg | 1.2 L/kg | 12 | Vdss(app) ([3]; iv, 2 mg/kg): 1.7 L/kg; half-life [24]: 1.3 h; AUC(0-inf) [25]: 1280 ng·h/mL; clearance [26]: 8.6 mL/min/kg; Cmax [27]: 4950 ng/mL; Cmax [28]: 1150 ng/mL; fold change (FC) [29]: 3.4
3 | COCCCOc1cc2c(nc1OC)-c1cc(=O)c(C(=O)O)cn1[C@H](C(C)C)C2 | 0.46 | > 25 µM | 0.8 L/kg | > 200 µM | 5.4 mL/min/kg | 3.8 | > 50 µM | > 200 µM | > 25 µM | – | – | > 25 µM | 8.6 | 0.9 h | 3500 ng·h/mL | 1540 ng/mL | 2.6 | 0.7 L/kg | 1.5 L/kg | 28 | Activity [30]: Non-Toxic; NOAEL at 672 h [31]: 150 mg/kg; Activity [32]: Non-Toxic; half-life [24]: 1.3 h; Activity [33]: 1.78 log10CFU; EC50 [34]: 0.003 µM; AUC(0-inf) [25]: 1150 ng·h/mL; EC50 [35]: 0.003 µM; clearance [26]: 9.6 mL/min/kg; Activity [36]: 1.64 log10CFU; Cmax [27]: 3240 ng/mL; Cmax [28]: 1180 ng/mL; fold change (FC) [29]: 8.7
